Source: ChEMBL document CHEMBL1828534, “Synthesis and antitumor activity of 1,2,4-triazoles having 1,4-benzodioxan fragment as a novel class of potent methionine aminopeptidase type II inhibitors” (Bioorg Med Chem, 2011)

Legend:
HeLa = experiment: cells; settings: Homo sapiens, 24 h
Description: Antiproliferative activity against human HeLa cells after 24 hrs by MTT assay

[1] = molecular target: Methionine aminopeptidase 2 (Homo sapiens, UniProt P50579); experiment: Inhibition of MetAP2 after 4 hrs
BGC-823 = experiment: cells; settings: Homo sapiens, BGC-823, 24 h
Description: Antiproliferative activity against human BGC823 cells after 24 hrs by MTT assay

HepG2 [2] = experiment: cells; settings: Homo sapiens, HepG2, 24 h
Description: Antiproliferative activity against human HepG2 cells after 24 hrs by MTT assay

cells = settings: Homo sapiens, SW 1116, 24 h
Description: Antiproliferative activity against human SW1116 cells after 24 hrs by MTT assay

HepG2 [3] = experiment: Induction of apoptosis in human HepG2 cells assessed as early apoptotic cells at 4 uM after 24 hrs using annexin V-FITC and propidium iodide staining by flow cytometry analysis (Rvb =0.02 %); assay type: functional
HepG2 [4] = experiment: Induction of apoptosis in human HepG2 cells assessed as late pre-necrotic cells at 4 uM after 24 hrs using annexin V-FITC and propidium iodide staining by flow cytometry analysis (Rvb =0.02 %); assay type: functional
HepG2 [5] = experiment: Induction of apoptosis in human HepG2 cells assessed as late apoptotic/necrotic cells at 2 uM after 24 hrs using annexin V-FITC and propidium iodide staining by flow cytometry analysis (Rvb =0.02 %); assay type: functional
HepG2 [6] = experiment: Induction of apoptosis in human HepG2 cells assessed as viable cells at 0.5 uM after 24 hrs using annexin V-FITC and propidium iodide staining by flow cytometry analysis (Rvb =96.26 %); assay type: functional; settings: HepG2, 24 h, read-out: Activity
HepG2 [7] = experiment: Induction of apoptosis in human HepG2 cells after 24 hrs using annexin V-FITC and propidium iodide staining by flow cytometry analysis; assay type: functional, cell-based
HepG2 [8] = experiment: Induction of apoptosis in human HepG2 cells assessed as viable cells at 4 uM after 24 hrs using annexin V-FITC and propidium iodide staining by flow cytometry analysis (Rvb =96.26 %); assay type: functional; settings: HepG2, 24 h, read-out: Activity
HepG2 [9] = experiment: Induction of apoptosis in human HepG2 cells assessed as late pre-necrotic cells at 1 uM after 24 hrs using annexin V-FITC and propidium iodide staining by flow cytometry analysis (Rvb =0.02 %); assay type: functional
HepG2 [10] = experiment: Induction of apoptosis in human HepG2 cells assessed as late apoptotic/necrotic cells at 0.5 uM after 24 hrs using annexin V-FITC and propidium iodide staining by flow cytometry analysis (Rvb =0.02 %); assay type: functional
HepG2 [11] = experiment: Induction of apoptosis in human HepG2 cells assessed as late pre-necrotic cells at 2 uM after 24 hrs using annexin V-FITC and propidium iodide staining by flow cytometry analysis (Rvb =0.02 %); assay type: functional
HepG2 [12] = experiment: Induction of apoptosis in human HepG2 cells assessed as early apoptotic cells at 2 uM after 24 hrs using annexin V-FITC and propidium iodide staining by flow cytometry analysis (Rvb =0.02 %); assay type: functional
HepG2 [13] = experiment: Induction of apoptosis in human HepG2 cells assessed as viable cells at 1 uM after 24 hrs using annexin V-FITC and propidium iodide staining by flow cytometry analysis (Rvb =96.26 %); assay type: functional; settings: HepG2, 24 h, read-out: Activity
HepG2 [14] = experiment: Induction of apoptosis in human HepG2 cells assessed as viable cells at 2 uM after 24 hrs using annexin V-FITC and propidium iodide staining by flow cytometry analysis (Rvb =96.26 %); assay type: functional; settings: HepG2, 24 h, read-out: Activity
HepG2 [15] = experiment: Induction of apoptosis in human HepG2 cells assessed as early apoptotic cells at 0.5 uM after 24 hrs using annexin V-FITC and propidium iodide staining by flow cytometry analysis (Rvb =0.02 %); assay type: functional
HepG2 [16] = experiment: Induction of apoptosis in human HepG2 cells assessed as late pre-necrotic cells at 0.5 uM after 24 hrs using annexin V-FITC and propidium iodide staining by flow cytometry analysis (Rvb =0.02 %); assay type: functional
HepG2 [17] = experiment: Induction of apoptosis in human HepG2 cells assessed as early apoptotic cells at 1 uM after 24 hrs using annexin V-FITC and propidium iodide staining by flow cytometry analysis (Rvb =0.02 %); assay type: functional
HepG2 [18] = experiment: Induction of apoptosis in human HepG2 cells assessed as late apoptotic/necrotic cells at 4 uM after 24 hrs using annexin V-FITC and propidium iodide staining by flow cytometry analysis (Rvb =0.02 %); assay type: functional
HepG2 [19] = experiment: Induction of apoptosis in human HepG2 cells assessed as late apoptotic/necrotic cells at 1 uM after 24 hrs using annexin V-FITC and propidium iodide staining by flow cytometry analysis (Rvb =0.02 %); assay type: functional

Methionine aminopeptidase 2, sequence (P50579 whole entry): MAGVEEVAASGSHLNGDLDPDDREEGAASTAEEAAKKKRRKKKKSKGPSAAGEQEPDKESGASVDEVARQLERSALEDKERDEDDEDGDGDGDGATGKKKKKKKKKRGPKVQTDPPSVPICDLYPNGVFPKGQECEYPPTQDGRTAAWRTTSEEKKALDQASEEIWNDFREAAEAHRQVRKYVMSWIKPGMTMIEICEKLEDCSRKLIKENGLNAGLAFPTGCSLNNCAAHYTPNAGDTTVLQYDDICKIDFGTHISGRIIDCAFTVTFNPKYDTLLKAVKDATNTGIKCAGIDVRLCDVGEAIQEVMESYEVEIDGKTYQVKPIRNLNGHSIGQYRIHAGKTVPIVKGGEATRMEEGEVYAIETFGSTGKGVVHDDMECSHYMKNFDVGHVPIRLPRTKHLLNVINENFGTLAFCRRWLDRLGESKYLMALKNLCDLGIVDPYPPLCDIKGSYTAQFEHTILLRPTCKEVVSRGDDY

| SMILES | IC50 (HeLa) | IC50 (BGC-823) | IC50 (HepG2 [2]) | IC50 (cells) | also measured |
| --- | --- | --- | --- | --- | --- |
| CO[C@@H]1[C@H](OC(=O)NC(=O)CCl)CC[C@]2(CO2)[C@H]1[C@@]1(C)O[C@@H]1CC=C(C)C [O-CHLOROACETYLCARBAMOYLFUMAGILLOL] | 2.02 µM | 1.48 µM | 0.86 µM | 5.54 µM | IC50 [1]: 1050 nM |
| O=[N+]([O-])c1ccccc1CSc1nnc(-c2ccc3c(c2)OCCO3)n1-c1ccccc1 | 69.8 µM | 26.4 µM | 12 µM | 8.3 µM |  |
| Brc1ccccc1CSc1nnc(-c2ccc3c(c2)OCCO3)n1-c1ccccc1 | > 100 µM | > 100 µM | 4.73 µM | 7.35 µM |  |
| Cc1ccc(CSc2nnc(-c3ccc4c(c3)OCCO4)n2-c2ccccc2)cc1 | 49.7 µM | 44.3 µM | 56.8 µM | 16.2 µM |  |
| COc1cccc(CSc2nnc(-c3ccc4c(c3)OCCO4)n2-c2ccccc2)c1 | > 100 µM | > 100 µM | 35.1 µM | 10.1 µM |  |
| Sc1nnc(-c2ccc3c(c2)OCCO3)n1-c1ccccc1 | 51.9 µM | 47 µM | 60 µM | 38.4 µM |  |
| Brc1ccc(CSc2nnc(-c3ccc4c(c3)OCCO4)n2-c2ccccc2)cc1 | 54.6 µM | 33.8 µM | 7.94 µM | 5.81 µM |  |
| Clc1ccc(CSc2nnc(-c3ccc4c(c3)OCCO4)n2-c2ccccc2)cc1 | 79.2 µM | 79.3 µM | 3.53 µM | 8.3 µM |  |

More lines, main results first:

| IC50 (HeLa) | IC50 (BGC-823) | IC50 (HepG2 [2]) | IC50 (cells) | SMILES | also measured |
| --- | --- | --- | --- | --- | --- |
| 46.9 µM | > 100 µM | 1.02 µM | 20.8 µM | Fc1ccc(CSc2nnc(-c3ccc4c(c3)OCCO4)n2-c2ccccc2)cc1 |  |
| 44.2 µM | 65.6 µM | 5.21 µM | 26.2 µM | Brc1cccc(CSc2nnc(-c3ccc4c(c3)OCCO4)n2-c2ccccc2)c1 |  |
| 18.6 µM | > 100 µM | 1.96 µM | 7.83 µM | Fc1ccc(CSc2nnc(-c3ccc4c(c3)OCCO4)n2-c2ccccc2)c(F)c1 |  |
| 29 µM | 17.4 µM | 0.97 µM | 9.67 µM | Clc1ccccc1CSc1nnc(-c2ccc3c(c2)OCCO3)n1-c1ccccc1 |  |
| 24.2 µM | 18.6 µM | 0.81 µM | 13.6 µM | Fc1ccccc1CSc1nnc(-c2ccc3c(c2)OCCO3)n1-c1ccccc1 | Activity (HepG2 [3]): 11%; Activity (HepG2 [4]): 26.23%; Activity (HepG2 [5]): 18%; viability at 0.5 µM (HepG2 [6]): 58.3%; Activity (HepG2 [7]): Dose-dependent effect; viability at 4 µM (HepG2 [8]): 39.5%; Activity (HepG2 [9]): 24.49%; Activity (HepG2 [10]): 8%; Activity (HepG2 [11]): 27.21%; Activity (HepG2 [12]): 4.03%; viability at 1 µM (HepG2 [13]): 58.9%; viability at 2 µM (HepG2 [14]): 50.8%; Activity (HepG2 [15]): 0.8%; Activity (HepG2 [16]): 32.8%; Activity (HepG2 [17]): 3.49%; Activity (HepG2 [18]): 23.25%; Activity (HepG2 [19]): 13.17% |
| 36 µM | > 100 µM | 20.5 µM | 12.7 µM | Cc1ccccc1CSc1nnc(-c2ccc3c(c2)OCCO3)n1-c1ccccc1 |  |
| 35.2 µM | 84.2 µM | 2.07 µM | 9.01 µM | Fc1cccc(F)c1CSc1nnc(-c2ccc3c(c2)OCCO3)n1-c1ccccc1 |  |
| 15 µM | 51.2 µM | 2.39 µM | 10.6 µM | Clc1cccc(CSc2nnc(-c3ccc4c(c3)OCCO4)n2-c2ccccc2)c1 |  |
| 36.2 µM | 48.6 µM | 13.8 µM | 13.8 µM | O=[N+]([O-])c1ccc(CSc2nnc(-c3ccc4c(c3)OCCO4)n2-c2ccccc2)cc1 |  |
| 32.8 µM | 73.4 µM | 5.96 µM | 7.93 µM | c1ccc(CSc2nnc(-c3ccc4c(c3)OCCO4)n2-c2ccccc2)cc1 |  |
| 45.2 µM | 30.1 µM | 49.3 µM | 7.59 µM | O=[N+]([O-])c1cccc(CSc2nnc(-c3ccc4c(c3)OCCO4)n2-c2ccccc2)c1 |  |
